Source: ChEMBL document CHEMBL6114961, “Novel isoxazole thiophene-containing compounds active against Mycobacterium tuberculosis” (Bioorg Med Chem Lett, 2025)
≈ marks a conversion by molar mass, not a printed value.

Columns and labels:
Type in all cases: functional
[1] = tested on: Mycobacterium tuberculosis; test: Antituberculosis activity against Mycobacterium tuberculosis sCHN240 mutant CR2 strain assessed as reduction in bacterial growth
[2] = tested on: Mycobacterium tuberculosis; test: Antituberculosis activity against Mycobacterium tuberculosis sCHN240 mutant CR1 strain assessed as reduction in bacterial growth
[3] = tested on: Mycobacterium tuberculosis; test: Antituberculosis activity against Mycobacterium tuberculosis sCHN240 mutant CR6 strain assessed as reduction in bacterial growth
[4] = tested on: Mycobacterium tuberculosis; test: Antituberculosis activity against Mycobacterium tuberculosis sCHN240 mutant CR3 strain assessed as reduction in bacterial growth
[5] = tested on: Mycobacterium tuberculosis; test: Antituberculosis activity against Mycobacterium tuberculosis sCHN240 mutant CR5 strain assessed as reduction in bacterial growth
[6] = tested on: Mycobacterium tuberculosis; test: Antituberculosis activity against Mycobacterium tuberculosis Rv1625c mutant assessed as reduction in bacterial growth measured after 7 days using 7H9 broth by Alamar blue staining based analysis; settings: time 7 day

Structure (SMILES) | MIC90 [1] | MIC90 [2] | MIC90 [3] | MIC90 [4] | MIC90 [5] | MIC90 [6]
Cn1ncnc1CC(=O)N1CCC(c2nc(-c3ccc(Cl)c(Cl)c3)no2)CC1 | >20 µM | >20 µM | >20 µM | >20 µM | >20 µM | 
O=S(=O)(Nc1cc(-c2ccsc2)no1)c1ccccc1F |  |  |  |  |  | 19.9 µM (≈ 6.45 µg/mL)
